Here are results for seven molecules from patent publication US5399790A, “Non-steroid and non-prostanoid inhibitors of steroid and prostaglandin transforming enzymes” (Trustees of The University of Pennsylvania, priority 1993, dated 1995).

Data set [1] addresses T1, 3α-HSD (Rattus norvegicus, UniProt P23457).
T1 construct: the purified 3α-HSD of rat liver cytosol; from tissue; host or cells: rat liver (cytosol)
T1 sequence (P23457 1-322): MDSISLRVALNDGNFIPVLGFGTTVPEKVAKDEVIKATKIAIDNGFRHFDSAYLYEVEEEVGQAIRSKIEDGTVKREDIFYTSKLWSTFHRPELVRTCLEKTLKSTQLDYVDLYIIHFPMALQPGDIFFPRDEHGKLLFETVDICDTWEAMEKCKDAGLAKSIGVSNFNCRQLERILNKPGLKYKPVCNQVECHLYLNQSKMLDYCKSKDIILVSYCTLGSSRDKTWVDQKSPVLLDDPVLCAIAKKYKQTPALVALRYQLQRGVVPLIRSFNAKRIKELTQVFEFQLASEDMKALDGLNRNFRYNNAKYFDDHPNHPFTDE
Description: steady state kinetic measurements and protection from inactivation of 3α-HSD. The note with it: for type of inhibition versus NAD+ binding / type of inhibition versus androsterone binding: steady state kinetic measurements. It is filed as biochemical. The text has this: (§1) Three types of experimental evidence indicate that both the enone (III) and the acetylenic ketone (IV) alkylate the pyridine nucleotide binding domain in preference to the steroid binding site of the enzyme. […] Third, chromatographic experiments using the immobilized nucleotide analog Cibacron Blue indicate that both native enzyme and enzyme inactivated with the steroid affinity alkylator, 17β-bromoacetoxy-5α-androstan-17β-ol-3-one, bind tightly to the immobilized nucleotide analog. By contrast, enzyme inactivated by either (III) or (IV) has no affinity for the immobilized nucleotide analogue. This experimental evidence implies that the alkylators (III) and (IV) covalently modify the nucleotide binding domain of 3α-HSD.

For a further data set, the target named is T2, cyclooxygenase (Ovis aries, UniProt P05979).
T2 construct: cyclooxygenase obtained from sheep seminal vesicle microsomes; from tissue; host or cells: sheep seminal vesicle microsomes
T2 sequence (P05979 25-600): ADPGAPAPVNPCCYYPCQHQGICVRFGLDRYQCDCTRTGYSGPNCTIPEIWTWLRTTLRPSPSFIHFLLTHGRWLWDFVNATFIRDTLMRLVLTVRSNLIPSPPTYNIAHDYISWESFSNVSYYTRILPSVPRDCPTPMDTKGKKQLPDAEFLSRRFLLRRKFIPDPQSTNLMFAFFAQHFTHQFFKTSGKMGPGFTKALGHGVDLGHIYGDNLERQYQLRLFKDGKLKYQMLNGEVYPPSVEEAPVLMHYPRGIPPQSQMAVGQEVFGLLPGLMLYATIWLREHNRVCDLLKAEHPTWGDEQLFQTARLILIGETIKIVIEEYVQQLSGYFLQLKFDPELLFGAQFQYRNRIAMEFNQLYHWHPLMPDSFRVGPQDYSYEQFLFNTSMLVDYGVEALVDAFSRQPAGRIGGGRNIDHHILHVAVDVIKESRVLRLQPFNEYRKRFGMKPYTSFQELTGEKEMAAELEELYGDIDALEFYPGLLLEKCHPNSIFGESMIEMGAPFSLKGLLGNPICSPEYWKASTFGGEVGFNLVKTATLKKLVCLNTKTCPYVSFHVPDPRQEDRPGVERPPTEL
Description: time dependent inactivation of semi-purified cyclooxygenase (oxygen consumption). The note with it: for inactivation of cyclooxygenase / prostaglandin synthases: result in words. It counts as biochemical, sheep. The procedure:
Semi-purified cyclooxygenase (480 μg) was pre-incubated in 100 μl systems containing the inhibitor concentrations indicated, along with 50 mM Tris-HCl (pH=7.2), 100 μM EDTA, 1 mM phenol, 1 μM hematin, 1% Tween, and 10% DMSO. At the time intervals shown, 5 μl aliquots were removed and diluted into a 600 μl assay system containing 100 mM potassium phosphate (pH=7.2), 1 mM phenol, and 100 μM arachidonic acid. The rate of oxygen consumption was then measured. The maximum rate of oxygen uptake observed in these assays was 1.875 μmoles of oxygen consumed per minute per milligram protein.

The target of data set [2] is T1, 3α-HSD. In words: time dependent inactivation of purified 3α-HSD. The settings on record: for inactivation of 3α-HSD: result in words; for return of enzyme activity after inactivation: gel filtration or extensive dialysis of the inactivated enzyme. It counts as biochemical. The method, then: 3α-HSD (24 μM of purified enzyme) was incubated in systems (30 μl) containing 1.2 mM NAD^+, 10 mM potassium phosphate buffer pH 7.0, 1 mM EDTA and 5% acetonitrile as a co-solvent. Enzyme activity was followed over time by diluting an aliquot of the incubation mixture into a 1 ml assay containing: 2.3 mM NAD^+ and 75 μM androsterone in 0.1M potassium phosphate buffer pH 7.0, with 4% acetonitrile as a co-solvent. Initial rates were determined spectrophotometrically by measuring the rate of NADH formation at 340 nm. Because of the 100 fold or greater dilution of the enzyme into the assay, the initial rate measured is an indication of the enzyme activity remaining at that time. Semi-log plots of the amount of enzyme remaining vs. time are curvilinear (panel a). Initial rates of inactivation (kapp's) were estimated by taking tangents to these curves. Data was replotted as 1/kapp vs 1/allylic alcohol from which kinact (the rate constant for enzyme inactivation) and Ki (the binding constant of the allylic alcohol) were determined, (panel b).
Inactivation of 3α-HSD (24 μM) was conducted in incubations (60 μl) of 10 mM potassium phosphate buffer pH 7.0 containing 1 mM EDTA and 4% acetonitrile as a co-solvent. After the initial enzyme activity was determined (see the legend of FIG. 2 for assay composition), the concentration of inactivator indicated (.cndot.=0 μM, .circle.=2.1 μM, =4.9 μM, .gradient.=10.0 μM, =15.0 μM, []24.0 μM) was added and the sample incubated at 25° C. Over time, samples were withdrawn and diluted into the standard assay to determine the amount of enzyme activity remaining. A secondary plot of the amount of enzyme inactivated vs. the amount of inhibitor added provided the stoichiometry of inactivation when corrected for nonspecific loss of enzyme activity (panel b). The continuous line without points is a theoretical line for a stoichiometry of 1:1.

For data set [3], the target named is T1, 3α-HSD. In words: chromatography of inactivated 3α-HSD on the immobilized nucleotide analog Cibacron Blue. It is filed as binding.
Text: as §1

The subject of data set [4] is 3α-HSD and 3(17)β-HSD (Pseudomonas testosteroni), 3α,20α-HSD (Streptomyces hydrogenase), 20α-HSD (rat ovary), 3β-HSD (rat liver), alcohol dehydrogenase …. Description: broad screen of the alcohols as suicide substrates of dehydrogenases. It is filed as biochemical. The settings on record: eight dehydrogenases screened. The method, then: A broad screen was conducted in which the allylic (I) and acetylenic alcohols (II) were examined as suicide substrates of the following enzymes: 3α-HSD and 3(17)β-HSD (Pseudomonas testosteroni), 3α,20α-HSD (Streptomyces hydrogenase), 20α-HSD (rat ovary), 3β-HSD (rat liver), alcohol dehydrogenase (yeast), lactate dehydrogenase (porcine heart) and 3α-HSD (rat liver).

Substrate in data set [5]: C#CC(O)c1ccc([N+](=O)[O-])cc1
Description: enzymatic oxidation of the allylic and acetylenic alcohols by 3α-HSD in the presence of NAD+. It is filed as biochemical, rat. The settings on record: other: oxidation by 3α-HSD in the presence of NAD+; pH 7.0; 25.0 °C.

Substrate in data set [6]: C=CC(O)c1ccc([N+](=O)[O-])cc1
The description is as above. It is filed as biochemical, rat. The note with it: other: oxidation by 3α-HSD in the presence of NAD+; pH 7.0; 25.0 °C.

Entries after “also recorded” stand apart in the source; their conditions may differ. Where only a bound is given, the exact number is not on record here.

On to `C#CC(=O)c1ccc([N+](=O)[O-])cc1` [IV, 1-(4'-nitrophenyl)-2-propyn-1-one], for which, at 3α-HSD [1], the “protection of 3α-HSD from inactivation by NAD+” value was “complete protection”; the “protection of 3α-HSD from inactivation by androsterone and other compounds competitive for the steroid binding site” value was “slow the rate of inactivation but do not completely block this event”; the “type of inhibition versus NAD+ binding” value is recorded as “competitive inhibitors”; the “type of inhibition versus androsterone binding” value was “non-competitive or mixed inhibitors”. For the same molecule, the “inactivation of cyclooxygenase / prostaglandin synthases” value at cyclooxygenase is “irreversibly inactivate prostaglandin synthases in a time dependent manner”. Further, the “inactivation of cyclooxygenase / prostaglandin synthases” value on cyclooxygenase (listed as iv) is “time and concentration dependent inactivation”. The “inactivation of 3α-HSD” value at 3α-HSD [2] is “stoichiometric inactivators; also recorded: rapid and stoichiometric”. Besides, the “binding of the inactivated enzyme to the immobilized nucleotide analog” value (“binding … to the immobilized nucleotide analog” below) on 3α-HSD [3] is on record as “no affinity”.

With `C=CC(O)c1ccc([N+](=O)[O-])cc1` (stereo not drawn) [I, 1-(4'-nitrophenyl)-2-propen-1-ol], the “selectivity as suicide substrate among the screened enzymes” value in data set [4] was “only rat liver 3α-HSD effectively oxidized the alcohols”. The “t1/2 life for the enzyme” value at 3α-HSD [2] (at a saturating allylic alcohol concentration) came out at 8 s. Also, the “molecules of the allylic alcohol oxidized for every molecule of enzyme inactivated” value on 3α-HSD [2] (comparison of the rate of oxidation with that of enzyme inactivation) was no more than 10 molecules. In addition, the partition ratio kcat/kinact on 3α-HSD [2] (estimated, theoretical limit 1) was 5.3. For the same molecule, on 3α-HSD [2], the “return of enzyme activity after inactivation” value was “enzyme activity does not return” and the “inactivation of 3α-HSD” value is “highly selective mechanism-based inactivators; also recorded: time-dependent loss of 3α-HSD activity”. Further, the Ki at 3α-HSD [2] (method of Kitz and Wilson, in the presence of NAD+) was 1200 µM.

`C#CC(O)c1ccc([N+](=O)[O-])cc1` (stereo not drawn) [II, 1-(4'-nitrophenyl)-2-propyn-1-ol]: the “selectivity as suicide substrate among the screened enzymes” value in data set [4] is given as “only rat liver 3α-HSD effectively oxidized the alcohols”. For the same molecule, at 3α-HSD [2], the “return of enzyme activity after inactivation” value is “enzyme activity does not return” and the “inactivation of 3α-HSD” value was “highly selective mechanism-based inactivators”.

As to `C=CC(=O)c1ccc([N+](=O)[O-])cc1` [III, 1-(4'-nitrophenyl)-2-propen-1-one], at 3α-HSD [1], the “protection of 3α-HSD from inactivation by NAD+” value is listed as “complete protection”; the “protection of 3α-HSD from inactivation by androsterone and other compounds competitive for the steroid binding site” value is listed as “slow the rate of inactivation but do not completely block this event”; the “type of inhibition versus NAD+ binding” value is recorded as “competitive inhibitors”; the “type of inhibition versus androsterone binding” value is “non-competitive or mixed inhibitors”. For the same molecule, the “inactivation of cyclooxygenase / prostaglandin synthases” value on cyclooxygenase is given as “irreversibly inactivate prostaglandin synthases in a time dependent manner”. Besides, the “inactivation of cyclooxygenase / prostaglandin synthases” value at cyclooxygenase (listed as iii) is “time and concentration dependent inactivation”. The “t1/2 life at saturation” value at cyclooxygenase (semi-purified cyclooxygenase from sheep seminal vesicle microsomes) is 60 to 120 s. The IC50 at cyclooxygenase (semi-purified cyclooxygenase from sheep seminal vesicle microsomes, read-out: concentration required to inactivate 50% of the enzyme activity) is 837 µM. Moreover, at 3α-HSD [2], the “inactivation of 3α-HSD” value is “stoichiometric inactivators; also recorded: too fast to accurately measure; also recorded: rapid and stoichiometric”. Also, the “binding … to the immobilized nucleotide analog” value at 3α-HSD [3] was “no affinity”.

At cyclooxygenase (100 μM, over 20 hours), `CC(=O)Oc1ccccc1C(=O)O` [acetyl salicylate, reference compound] displayed a cyclooxygenase inactivated of 50%.

Regarding `C[C@]12CCC(=O)C[C@@H]1CC[C@@H]1[C@@H]2CC[C@]2(C)[C@@H](OC(=O)CBr)CC[C@@H]12` [17β-bromoacetoxy-5α-androstan-17β-ol-3-one, reference compound], the “binding … to the immobilized nucleotide analog” value on 3α-HSD [3] is on record as “bind tightly”.

B1: 3α-HSD (Rattus norvegicus) (protein)
chain: MDSISLRVALNDGNFIPVLGFGTTVPEKVAKDEVIKATKIAIDNGFRHFDSAYLYEVEEEVGQAIRSKIEDGTVKREDIFYTSKLWSTFHRPELVRTCLEKTLKSTQLDYVDLYIIHFPMALQPGDIFFPRDEHGKLLFETVDICDTWEAMEKCKDAGLAKSIGVSNFNCRQLERILNKPGLKYKPVCNQVECHLYLNQSKMLDYCKSKDIILVSYCTLGSSRDKTWVDQKSPVLLDDPVLCAIAKKYKQTPALVALRYQLQRGVVPLIRSFNAKRIKELTQVFEFQLASEDMKALDGLNRNFRYNNAKYFDDHPNHPFTDE
notes: the purified 3α-HSD of rat liver cytosol; from tissue; host or cells: rat liver (cytosol)
Consider B1, for which, in data set [5], the Vmax (in general, the rate approached at saturating substrate) came to 0.3 µmol/min/mg. Further, in data set [6], the Km (commonly the concentration of substrate that gives half-maximal velocity) came to 2020 µM and the Vmax was found to be 0.58 µmol/min/mg.
